Here are results for one molecule from patent US20240285627A1, “DRUG COMBINATION OF FAK INHIBITOR AND IMMUNOGENIC CELL DEATH INDUCER AND USE THEREOF” (INXMED (NANJING) CO., LTD., priority 2022, published 2024).

One series relates to KPL tumor. In words: Anti-tumor efficacy in KPL model in C57BL/6 mice (Example 12). The series is classed as in vivo. The settings on record: MRTX133 5 mg/kg IP BID, ANTI MOUSE PD-1 10 mg/kg IP BIW, IN10018 25 mg/kg PO QD. The procedure: 45 female C57BL/6 mice, 6-8 weeks old and 19 to 25 g in weight, were used in this study. The mice, marked by ear coding, were kept in Individual Ventilation Cages at constant temperature (20-26° C.) and humidity (40%-70%) with 3 animals in each cage. Animals had free access to irradiation sterilized dry granule food (Keao Xieli (Tianjin) Feed Co., Ltd) and sterile drinking water during the entire study period.
KPL cells were maintained in vitro in RPMI-1640 medium supplemented with 10% FBS and 1% P.S. at 37° C. in an atmosphere of 5% CO2 in air. The tumor cells were routinely sub-cultured three times weekly. KPL cells growing in an exponential growth phase were resuspended in PBS and adjusted concentration to 2×10^6/mL for tumor injection.
Each mouse was injected subcutaneously at the right flank with 0.1 mL KPL cell suspension (0.2×10^6) for tumor development. When tumor reach around 60 mm^3 on the 7th day after cell injection, mice were randomly grouped according to tumor volume, followed by drug administration. The day of grouping was defined as day 0.
The major endpoint is to see if the tumor growth can be delay or mice can be cured. Tumor sizes were measured three times weekly in two dimensions using a caliper (No. 105688, sylvac Dantsin), and the volume was expressed in mm^3 using the formula: V=0.5×a×b^2 (a, long diameters; b, short diameters). The tumor sizes were then used for the calculations of T/C (%) values. T/C (%) was calculated using the formula: T/C (%)=(Ti−T0)/(Vi−V0)×100%, Ti was the average tumor volume of a treatment group on a given day, T0 was the average tumor volume of the treatment group on the first day of treatment, Vi was the average tumor volume of the vehicle control group on the same day with Ti, and V0 was the average tumor volume of the vehicle group on the first day of treatment.
TGI was calculated for each group using the formula: TGI (%)=100%-T/C (%).
Efficacy study was euthanized on D28 after treatment according to requirement, tumors were collected and photographed, tumor weight were recorded meanwhile. Tumors were selected from each group and stored in 10% Formalin for the following research.
Summary statistics, including mean and the standard error of the mean (SEM), are provided for the tumor volume of each group at each time point. Statistical analysis of difference in tumor volume and tumor weight versus Vehicle group were conducted on the data obtained at each time point. T-test was performed to compare tumor volume among groups. A value of p<0.05 was considered to be statistically significant.

The next series concerns Mouse lung cancer KPL. In words: Proliferation of KPL cells, CCK8, MRTX1133 with or without IN10018 (Example 5). It is filed as cell-based. The settings on record: 72 hours, MRTX1133 alone. The procedure:
Mouse lung cancer KPL (Insitute of Biochemistry and Cell Biology) were cultured with RPMI-1640 (Shanghai Basalmedia, classification number: L210KJ, batch number: F210916)+10% FBS (Gibco, classification number: 10099-141c, batch number: 2158737cp) and passaged twice. When the cells were in good condition, the culture solution was placed in a 96-well plate with 3000 cells/well. After the cells were spread for 24 hours, a culture medium containing MRTX1133 (SuperLan Chemical Co., Ltd., classification number: P2621928-55-8, batch number: 131005) was added. 10 drug action concentrations were set, wherein the first concentration was 30 μM, which was serially diluted 5 times, and the last concentration was a control with a drug concentration of 0. Each drug concentration was set in triplicate. At the same time, another group of cells was established with the same drug concentration as the above method. The difference was that 10 μM IN10018 was added to each well. The drugs were mixed and the mixture was cultured in a 5% CO2 incubator at 37° C. for 72 hours.
After 72 hours of drug action, the cells were observed under a microscope, and 10 μl of CCK8 detection reagent (Cellorlab, classification number: CX001M, batch number: 2571100) was added to each well. […] Then the plate was read with a microplate reader OD450 ([…]).

Series [1] is described as follows: Body weight / tolerability of KPL tumor-bearing mice (Example 12). The settings on record: KPL tumor-bearing C57BL/6 mice. The series is classed as in vivo. The protocol:
All the procedures related to animal handling, care and the treatment in the study were conducted according to guidelines approved by the Institutional Animal Care and Use Committee (IACUC) following the guidance of the Association for Assessment and Accreditation of Laboratory Animal Care (AAALAC). At the time of routine monitoring, the animals were daily checked for any effects of tumor growth and treatments on normal behavior such as mobility, food and water consumption (by looking only), body weight gain/loss (body weights were measured every two days or twice weekly), eye/hair matting and any other abnormal effects as stated in the protocol. Death and observed clinical signs were recorded on the basis of the numbers of animals within each subset.
The body weight of KPL tumor-bearing mice was monitored regularly as an indirect index of toxicity.

Turning to `C#Cc1c(F)ccc2cc(O)cc(-c3ncc4c(N5CC6CCC(C5)N6)nc(OC[C@@]56CCCN5C[C@H](F)C6)nc4c3F)c12` [MRTX1133], the “T/C (%)” value in the series with KPL tumor (Day 3 after treatment) is recorded as 15.72%; with KPL tumor (Day 7 after treatment), −50.80%; in the series on KPL tumor (Day 10 after treatment) it was 2.69%; in the series with KPL tumor (Day 14 after treatment), 30.94%; in the series on KPL tumor (Day 17 after treatment), 56.17%; in the series with KPL tumor (Day 21 after treatment), 58.22%. For the same molecule, the “T/C (%)” value in the series with KPL tumor (Day 24 after treatment) is given as 61.87%; in the series with KPL tumor (Day 28 after treatment), 71.43%. Moreover, the “TGI (%)” value in the series with KPL tumor (Day 3 after treatment) is reported as 84.28%; with KPL tumor (Day 7 after treatment), 150.80%; with KPL tumor (Day 10 after treatment), 97.31%; with KPL tumor (Day 14 after treatment) it was 69.06%; in the series on KPL tumor (Day 17 after treatment) it was 43.83%; in the series with KPL tumor (Day 21 after treatment) it was 41.78%. Besides, the “TGI (%)” value is 38.13% with KPL tumor (Day 24 after treatment) and 28.57% with KPL tumor (Day 28 after treatment). The molecule also returned a tumor volume in the series on KPL tumor (day 28) of 579.34 mm^3. This molecule gave an IC50 with Mouse lung cancer KPL of 1760 nM. Further, the “tolerability in KPL model” value in series [1] is “well-tolerated”.
